Experimental data taken from patent US8772480B2, “Inhibitors of PI3 kinase and/or mTOR” (priority 2009, dated 2014).

Molecular target: ProfilerPro Kinase Selectivity Assay Kit kinases (Homo sapiens, UniProt O00141)
Format: biochemical
Details: SGK1; 1 μM compound concentration
Method: (§1) Compounds were profiled using a LabChip® EZ Reader II platform and a ProfilerPro Kinase Selectivity Assay Kit (Caliper Lifesciences Inc., Hopkinton, Mass.). Compounds were tested at a concentration of 1 M in duplicate, with mean data reported as percent of control (POC).

Q: For `COc1ccc(Nc2ncccc2-c2ncnc3[nH]cnc23)cn1` [Example 20, N-(6-Methoxypyridin-3-yl)-3-(9H-Purin-6-yl)Pyridin-2-Amine], which “POC (Percent of control) SGK1” value is on record?
A: 95 POC

Molecular target: ProfilerPro Kinase Selectivity Assay Kit kinases (Homo sapiens, UniProt O14757)
Format: biochemical
Details: CHK1; 1 μM compound concentration
Method: as §1

Q: `COc1ccc(Nc2ncccc2-c2ncnc3[nH]cnc23)cn1` [Example 20, N-(6-Methoxypyridin-3-yl)-3-(9H-Purin-6-yl)Pyridin-2-Amine] was tested. Which “POC (Percent of control) CHK1” value did it give?
A: 104 POC

Molecular target: ProfilerPro Kinase Selectivity Assay Kit kinases (Homo sapiens, UniProt O75116)
Format: biochemical
Details: ROCK2; 1 μM compound concentration
Method: as §1

Q: With `COc1ccc(Nc2ncccc2-c2ncnc3[nH]cnc23)cn1` [Example 20, N-(6-Methoxypyridin-3-yl)-3-(9H-Purin-6-yl)Pyridin-2-Amine] as the compound, how does the “POC (Percent of control) ROCK2” value read?
A: 101 POC

Molecular target: ProfilerPro Kinase Selectivity Assay Kit kinases (Homo sapiens, UniProt O75582)
Format: biochemical
Details: MSK1; 1 μM compound concentration
Method: as §1

Q: Which “POC (Percent of control) MSK1” value does the source give for `COc1ccc(Nc2ncccc2-c2ncnc3[nH]cnc23)cn1` [Example 20, N-(6-Methoxypyridin-3-yl)-3-(9H-Purin-6-yl)Pyridin-2-Amine] here?
A: 93 POC

Molecular target: ProfilerPro Kinase Selectivity Assay Kit kinases (Homo sapiens, UniProt O96017)
Format: biochemical
Details: CHK2; 1 μM compound concentration
Method: as §1

Q: How did the “POC (Percent of control) CHK2” value turn out when `COc1ccc(Nc2ncccc2-c2ncnc3[nH]cnc23)cn1` [Example 20, N-(6-Methoxypyridin-3-yl)-3-(9H-Purin-6-yl)Pyridin-2-Amine] was run?
A: 103 POC

Molecular target: ProfilerPro Kinase Selectivity Assay Kit kinases (Homo sapiens, UniProt P00519)
Format: biochemical
Details: ABL; 1 μM compound concentration
Method: as §1

Q: For `COc1ccc(Nc2ncccc2-c2ncnc3[nH]cnc23)cn1` [Example 20, N-(6-Methoxypyridin-3-yl)-3-(9H-Purin-6-yl)Pyridin-2-Amine], which “POC (Percent of control) ABL” value is on record?
A: 99 POC

Molecular target: ProfilerPro Kinase Selectivity Assay Kit kinases (Homo sapiens, UniProt P04049)
Format: biochemical
Details: cRAF; 1 μM compound concentration
Method: as §1

Q: How did the “POC (Percent of control) cRAF” value turn out when `COc1ccc(Nc2ncccc2-c2ncnc3[nH]cnc23)cn1` [Example 20, N-(6-Methoxypyridin-3-yl)-3-(9H-Purin-6-yl)Pyridin-2-Amine] was run?
A: 59 POC

Molecular target: ProfilerPro Kinase Selectivity Assay Kit kinases (Homo sapiens, UniProt P06239)
Sequence (P06239 2-509 limits assumed): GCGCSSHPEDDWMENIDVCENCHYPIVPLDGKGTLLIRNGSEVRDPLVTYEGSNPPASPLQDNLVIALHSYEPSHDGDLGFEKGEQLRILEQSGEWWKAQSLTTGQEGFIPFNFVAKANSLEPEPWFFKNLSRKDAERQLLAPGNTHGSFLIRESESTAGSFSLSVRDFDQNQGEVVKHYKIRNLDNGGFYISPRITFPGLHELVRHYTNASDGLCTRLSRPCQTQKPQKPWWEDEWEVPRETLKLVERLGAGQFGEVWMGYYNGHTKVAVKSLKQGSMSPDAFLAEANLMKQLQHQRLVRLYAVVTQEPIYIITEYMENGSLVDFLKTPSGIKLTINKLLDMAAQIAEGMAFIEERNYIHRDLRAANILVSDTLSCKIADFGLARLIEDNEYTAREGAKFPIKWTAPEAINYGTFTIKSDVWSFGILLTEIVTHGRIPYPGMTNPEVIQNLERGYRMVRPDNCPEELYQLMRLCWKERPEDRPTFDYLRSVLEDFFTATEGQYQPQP
Format: biochemical
Details: LCK; 1 μM compound concentration
Method: as §1

Q: With `COc1ccc(Nc2ncccc2-c2ncnc3[nH]cnc23)cn1` [Example 20, N-(6-Methoxypyridin-3-yl)-3-(9H-Purin-6-yl)Pyridin-2-Amine] as the compound, how does the “POC (Percent of control) LCK” value read?
A: 101 POC

Molecular target: ProfilerPro Kinase Selectivity Assay Kit kinases (Homo sapiens, UniProt P07948)
Sequence (P07948 2-512 limits assumed): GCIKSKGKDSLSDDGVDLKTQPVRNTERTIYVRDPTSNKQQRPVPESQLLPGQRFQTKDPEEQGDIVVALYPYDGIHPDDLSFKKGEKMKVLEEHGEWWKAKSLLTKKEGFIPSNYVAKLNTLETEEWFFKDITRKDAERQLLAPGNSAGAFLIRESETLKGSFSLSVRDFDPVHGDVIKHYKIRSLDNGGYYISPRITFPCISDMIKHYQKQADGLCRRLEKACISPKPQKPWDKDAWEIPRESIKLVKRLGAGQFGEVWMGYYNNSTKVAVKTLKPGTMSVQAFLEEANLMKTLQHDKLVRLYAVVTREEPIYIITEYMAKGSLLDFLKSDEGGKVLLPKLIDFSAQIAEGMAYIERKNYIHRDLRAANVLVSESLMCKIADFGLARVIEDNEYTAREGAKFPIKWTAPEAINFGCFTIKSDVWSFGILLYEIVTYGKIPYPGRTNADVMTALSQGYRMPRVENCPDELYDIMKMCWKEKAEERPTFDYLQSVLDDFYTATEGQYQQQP
Format: biochemical
Details: LYN; 1 μM compound concentration
Method: as §1

Q: How did the “POC (Percent of control) LYN” value turn out when `COc1ccc(Nc2ncccc2-c2ncnc3[nH]cnc23)cn1` [Example 20, N-(6-Methoxypyridin-3-yl)-3-(9H-Purin-6-yl)Pyridin-2-Amine] was run?
A: 92 POC

Molecular target: ProfilerPro Kinase Selectivity Assay Kit kinases (Homo sapiens, UniProt P08581)
Format: biochemical
Details: cMET; 1 μM compound concentration
Method: as §1

Q: How did the “POC (Percent of control) cMET” value turn out when `COc1ccc(Nc2ncccc2-c2ncnc3[nH]cnc23)cn1` [Example 20, N-(6-Methoxypyridin-3-yl)-3-(9H-Purin-6-yl)Pyridin-2-Amine] was run?
A: 106 POC

Molecular target: ProfilerPro Kinase Selectivity Assay Kit kinases (Homo sapiens, UniProt P11362)
Sequence (P11362 22-822 limits assumed): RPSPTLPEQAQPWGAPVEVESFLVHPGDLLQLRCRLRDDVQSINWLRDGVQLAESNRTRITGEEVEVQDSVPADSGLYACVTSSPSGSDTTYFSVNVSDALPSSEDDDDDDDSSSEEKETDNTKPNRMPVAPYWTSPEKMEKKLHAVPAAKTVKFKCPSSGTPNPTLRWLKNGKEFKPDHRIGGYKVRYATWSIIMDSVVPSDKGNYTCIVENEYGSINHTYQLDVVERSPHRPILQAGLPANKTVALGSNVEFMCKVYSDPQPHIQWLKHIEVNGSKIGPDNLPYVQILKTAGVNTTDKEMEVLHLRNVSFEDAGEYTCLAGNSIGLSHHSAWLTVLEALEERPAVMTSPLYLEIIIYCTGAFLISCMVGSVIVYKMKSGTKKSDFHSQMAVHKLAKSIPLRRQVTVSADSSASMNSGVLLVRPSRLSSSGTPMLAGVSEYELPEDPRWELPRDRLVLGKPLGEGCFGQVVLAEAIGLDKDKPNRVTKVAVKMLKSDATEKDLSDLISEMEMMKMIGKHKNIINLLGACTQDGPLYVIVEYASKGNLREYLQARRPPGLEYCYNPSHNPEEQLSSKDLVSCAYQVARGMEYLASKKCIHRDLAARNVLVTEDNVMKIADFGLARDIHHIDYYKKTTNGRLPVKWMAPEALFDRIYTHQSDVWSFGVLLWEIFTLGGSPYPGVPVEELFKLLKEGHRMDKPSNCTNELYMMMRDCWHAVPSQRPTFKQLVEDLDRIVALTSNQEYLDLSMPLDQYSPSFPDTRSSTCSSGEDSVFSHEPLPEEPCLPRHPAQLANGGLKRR
Format: biochemical
Details: FGFR1; 1 μM compound concentration
Method: as §1

Q: How did the “POC (Percent of control) FGFR1” value turn out when `COc1ccc(Nc2ncccc2-c2ncnc3[nH]cnc23)cn1` [Example 20, N-(6-Methoxypyridin-3-yl)-3-(9H-Purin-6-yl)Pyridin-2-Amine] was run?
A: 94 POC

Molecular target: ProfilerPro Kinase Selectivity Assay Kit kinases (Homo sapiens, UniProt P23443)
Format: biochemical
Details: p70S6K; 1 μM compound concentration
Method: as §1

Q: For `COc1ccc(Nc2ncccc2-c2ncnc3[nH]cnc23)cn1` [Example 20, N-(6-Methoxypyridin-3-yl)-3-(9H-Purin-6-yl)Pyridin-2-Amine], which “POC (Percent of control) p70S6K” value is on record?
A: 104 POC

Molecular target: ProfilerPro Kinase Selectivity Assay Kit kinases (Homo sapiens, UniProt P24941)
Format: biochemical
Details: CDK2; 1 μM compound concentration
Method: as §1

Q: For `COc1ccc(Nc2ncccc2-c2ncnc3[nH]cnc23)cn1` [Example 20, N-(6-Methoxypyridin-3-yl)-3-(9H-Purin-6-yl)Pyridin-2-Amine], which “POC (Percent of control) CDK2” value is on record?
A: 96 POC

Molecular target: ProfilerPro Kinase Selectivity Assay Kit kinases (Homo sapiens, UniProt P27361)
Sequence (P27361 2-379 limits assumed): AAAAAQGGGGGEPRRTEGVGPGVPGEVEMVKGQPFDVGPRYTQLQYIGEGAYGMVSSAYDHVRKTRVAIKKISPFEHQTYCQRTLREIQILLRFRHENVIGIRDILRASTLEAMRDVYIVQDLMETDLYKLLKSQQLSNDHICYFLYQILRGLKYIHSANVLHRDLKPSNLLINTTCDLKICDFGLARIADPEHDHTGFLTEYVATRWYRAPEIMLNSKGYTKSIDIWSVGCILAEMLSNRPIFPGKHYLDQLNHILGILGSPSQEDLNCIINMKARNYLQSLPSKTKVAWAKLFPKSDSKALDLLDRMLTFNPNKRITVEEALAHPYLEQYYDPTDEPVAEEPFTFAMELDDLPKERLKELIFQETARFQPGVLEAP
Format: biochemical
Details: ERK1; 1 μM compound concentration
Method: as §1

Q: How did the “POC (Percent of control) ERK1” value turn out when `COc1ccc(Nc2ncccc2-c2ncnc3[nH]cnc23)cn1` [Example 20, N-(6-Methoxypyridin-3-yl)-3-(9H-Purin-6-yl)Pyridin-2-Amine] was run?
A: 96 POC

Molecular target: ProfilerPro Kinase Selectivity Assay Kit kinases (Homo sapiens, UniProt P28482)
Sequence (P28482 2-360 limits assumed): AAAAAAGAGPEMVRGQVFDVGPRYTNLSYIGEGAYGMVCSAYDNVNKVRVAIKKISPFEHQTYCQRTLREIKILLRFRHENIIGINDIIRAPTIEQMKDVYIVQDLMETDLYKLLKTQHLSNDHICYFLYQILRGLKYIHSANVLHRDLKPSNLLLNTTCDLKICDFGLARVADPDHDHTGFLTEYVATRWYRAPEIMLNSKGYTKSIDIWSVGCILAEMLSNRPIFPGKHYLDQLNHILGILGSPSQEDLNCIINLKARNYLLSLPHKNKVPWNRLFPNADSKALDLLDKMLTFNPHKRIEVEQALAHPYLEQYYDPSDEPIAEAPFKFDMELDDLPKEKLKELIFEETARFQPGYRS
Format: biochemical
Details: ERK2; 1 μM compound concentration
Method: as §1

Q: With `COc1ccc(Nc2ncccc2-c2ncnc3[nH]cnc23)cn1` [Example 20, N-(6-Methoxypyridin-3-yl)-3-(9H-Purin-6-yl)Pyridin-2-Amine] as the compound, how does the “POC (Percent of control) ERK2” value read?
A: 101 POC

Molecular target: ProfilerPro Kinase Selectivity Assay Kit kinases (Homo sapiens, UniProt P31749)
Format: biochemical
Details: AKT1; 1 μM compound concentration
Method: as §1

Q: How did the “POC (Percent of control) AKT1” value turn out when `COc1ccc(Nc2ncccc2-c2ncnc3[nH]cnc23)cn1` [Example 20, N-(6-Methoxypyridin-3-yl)-3-(9H-Purin-6-yl)Pyridin-2-Amine] was run?
A: 105 POC

Molecular target: ProfilerPro Kinase Selectivity Assay Kit kinases (Homo sapiens, UniProt P35968)
Format: biochemical
Details: KDR; 1 μM compound concentration
Method: as §1

Q: For `COc1ccc(Nc2ncccc2-c2ncnc3[nH]cnc23)cn1` [Example 20, N-(6-Methoxypyridin-3-yl)-3-(9H-Purin-6-yl)Pyridin-2-Amine], which “POC (Percent of control) KDR” value is on record?
A: 93 POC

Molecular target: ProfilerPro Kinase Selectivity Assay Kit kinases (Homo sapiens, UniProt P36888)
Sequence (P36888 27-993 limits assumed): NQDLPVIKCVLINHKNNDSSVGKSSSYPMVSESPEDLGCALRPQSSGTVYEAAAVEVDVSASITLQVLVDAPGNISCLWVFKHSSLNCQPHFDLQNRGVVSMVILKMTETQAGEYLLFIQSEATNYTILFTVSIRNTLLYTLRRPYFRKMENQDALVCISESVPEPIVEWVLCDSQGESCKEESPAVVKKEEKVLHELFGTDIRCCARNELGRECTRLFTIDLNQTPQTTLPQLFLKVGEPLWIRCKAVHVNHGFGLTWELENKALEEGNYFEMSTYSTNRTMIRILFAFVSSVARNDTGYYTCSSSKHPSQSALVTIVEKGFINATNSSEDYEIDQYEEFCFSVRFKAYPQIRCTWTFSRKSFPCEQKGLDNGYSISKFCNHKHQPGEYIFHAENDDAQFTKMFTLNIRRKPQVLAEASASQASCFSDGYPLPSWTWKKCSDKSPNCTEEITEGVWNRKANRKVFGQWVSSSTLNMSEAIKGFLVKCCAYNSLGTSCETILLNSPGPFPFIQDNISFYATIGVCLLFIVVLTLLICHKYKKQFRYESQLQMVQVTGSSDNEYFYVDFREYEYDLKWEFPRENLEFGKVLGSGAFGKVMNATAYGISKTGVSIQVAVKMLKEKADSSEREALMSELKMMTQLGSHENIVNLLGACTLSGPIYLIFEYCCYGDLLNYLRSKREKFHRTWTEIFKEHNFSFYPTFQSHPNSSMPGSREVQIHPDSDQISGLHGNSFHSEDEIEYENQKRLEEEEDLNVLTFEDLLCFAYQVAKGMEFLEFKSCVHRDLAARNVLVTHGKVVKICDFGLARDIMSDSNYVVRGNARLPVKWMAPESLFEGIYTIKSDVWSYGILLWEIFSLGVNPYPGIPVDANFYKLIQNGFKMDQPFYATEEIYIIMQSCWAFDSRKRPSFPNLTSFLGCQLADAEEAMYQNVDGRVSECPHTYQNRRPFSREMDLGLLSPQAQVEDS
Format: biochemical
Details: FLT3; 1 μM compound concentration
Method: as §1

Q: Which “POC (Percent of control) FLT3” value does the source give for `COc1ccc(Nc2ncccc2-c2ncnc3[nH]cnc23)cn1` [Example 20, N-(6-Methoxypyridin-3-yl)-3-(9H-Purin-6-yl)Pyridin-2-Amine] here?
A: 120 POC

Molecular target: ProfilerPro Kinase Selectivity Assay Kit kinases (Homo sapiens, UniProt P49137)
Format: biochemical
Details: MAPKAPK2; 1 μM compound concentration
Method: as §1

Q: For `COc1ccc(Nc2ncccc2-c2ncnc3[nH]cnc23)cn1` [Example 20, N-(6-Methoxypyridin-3-yl)-3-(9H-Purin-6-yl)Pyridin-2-Amine], which “POC (Percent of control) MAPKAPK2” value is on record?
A: 100 POC

Molecular target: ProfilerPro Kinase Selectivity Assay Kit kinases (Homo sapiens, UniProt P49841)
Format: biochemical
Details: GSK3 beta; 1 μM compound concentration
Method: as §1

Q: For `COc1ccc(Nc2ncccc2-c2ncnc3[nH]cnc23)cn1` [Example 20, N-(6-Methoxypyridin-3-yl)-3-(9H-Purin-6-yl)Pyridin-2-Amine], which “POC (Percent of control) GSK3 beta” value is on record?
A: 95 POC

Molecular target: ProfilerPro Kinase Selectivity Assay Kit kinases (Homo sapiens, UniProt Q05513)
Format: biochemical
Details: PKC zeta; 1 μM compound concentration
Method: as §1

Q: `COc1ccc(Nc2ncccc2-c2ncnc3[nH]cnc23)cn1` [Example 20, N-(6-Methoxypyridin-3-yl)-3-(9H-Purin-6-yl)Pyridin-2-Amine] was tested. Which “POC (Percent of control) PKC zeta” value did it give?
A: 99 POC

Molecular target: ProfilerPro Kinase Selectivity Assay Kit kinases (Homo sapiens, UniProt Q06187)
Sequence (Q06187 2-659 limits assumed): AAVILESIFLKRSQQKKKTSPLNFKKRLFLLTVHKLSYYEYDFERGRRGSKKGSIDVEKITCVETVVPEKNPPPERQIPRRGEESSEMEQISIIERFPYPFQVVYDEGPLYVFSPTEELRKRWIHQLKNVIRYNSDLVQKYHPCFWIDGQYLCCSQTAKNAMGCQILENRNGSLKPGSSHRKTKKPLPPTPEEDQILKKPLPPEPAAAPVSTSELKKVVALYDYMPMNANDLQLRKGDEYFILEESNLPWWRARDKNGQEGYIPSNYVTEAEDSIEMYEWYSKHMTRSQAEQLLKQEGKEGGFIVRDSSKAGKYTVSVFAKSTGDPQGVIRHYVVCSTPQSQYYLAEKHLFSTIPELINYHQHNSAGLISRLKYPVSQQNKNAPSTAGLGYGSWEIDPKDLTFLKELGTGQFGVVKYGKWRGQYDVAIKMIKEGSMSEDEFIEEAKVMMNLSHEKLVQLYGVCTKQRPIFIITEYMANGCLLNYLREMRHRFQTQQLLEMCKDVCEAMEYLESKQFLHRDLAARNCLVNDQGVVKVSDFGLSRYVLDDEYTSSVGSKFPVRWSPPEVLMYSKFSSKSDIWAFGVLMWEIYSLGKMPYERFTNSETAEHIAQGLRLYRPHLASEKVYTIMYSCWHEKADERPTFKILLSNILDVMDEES
Format: biochemical
Details: BTK; 1 μM compound concentration
Method: as §1

Q: Which “POC (Percent of control) BTK” value does the source give for `COc1ccc(Nc2ncccc2-c2ncnc3[nH]cnc23)cn1` [Example 20, N-(6-Methoxypyridin-3-yl)-3-(9H-Purin-6-yl)Pyridin-2-Amine] here?
A: 98 POC

Molecular target: ProfilerPro Kinase Selectivity Assay Kit kinases (Homo sapiens, UniProt Q13627)
Format: biochemical
Details: DYRK1a; 1 μM compound concentration
Method: as §1

Q: `COc1ccc(Nc2ncccc2-c2ncnc3[nH]cnc23)cn1` [Example 20, N-(6-Methoxypyridin-3-yl)-3-(9H-Purin-6-yl)Pyridin-2-Amine] was tested. Which “POC (Percent of control) DYRK1a” value did it give?
A: 102 POC

Molecular target: ProfilerPro Kinase Selectivity Assay Kit kinases (Homo sapiens, UniProt Q13976)
Format: biochemical
Details: PKGa2; 1 μM compound concentration
Method: as §1

Q: For `COc1ccc(Nc2ncccc2-c2ncnc3[nH]cnc23)cn1` [Example 20, N-(6-Methoxypyridin-3-yl)-3-(9H-Purin-6-yl)Pyridin-2-Amine], which “POC (Percent of control) PKGa2” value is on record?
A: 98 POC

Molecular target: ProfilerPro Kinase Selectivity Assay Kit kinases (Homo sapiens, UniProt Q16539)
Sequence (Q16539 2-360 limits assumed): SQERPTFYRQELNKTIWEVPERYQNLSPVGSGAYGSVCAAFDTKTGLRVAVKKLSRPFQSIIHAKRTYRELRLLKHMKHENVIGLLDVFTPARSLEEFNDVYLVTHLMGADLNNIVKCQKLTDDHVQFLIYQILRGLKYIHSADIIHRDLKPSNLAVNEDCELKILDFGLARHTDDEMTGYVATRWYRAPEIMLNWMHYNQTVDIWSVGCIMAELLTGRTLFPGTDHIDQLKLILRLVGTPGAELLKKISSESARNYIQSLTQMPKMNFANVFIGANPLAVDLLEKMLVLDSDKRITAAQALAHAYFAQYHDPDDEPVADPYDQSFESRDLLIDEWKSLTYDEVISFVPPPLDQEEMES
Format: biochemical
Details: p38 alpha; 1 μM compound concentration
Method: as §1

Q: `COc1ccc(Nc2ncccc2-c2ncnc3[nH]cnc23)cn1` [Example 20, N-(6-Methoxypyridin-3-yl)-3-(9H-Purin-6-yl)Pyridin-2-Amine] was tested. Which “POC (Percent of control) p38 alpha” value did it give?
A: 93 POC

Molecular target: ProfilerPro Kinase Selectivity Assay Kit kinases (Homo sapiens, UniProt Q16566)
Format: biochemical
Details: CAMK4; 1 μM compound concentration
Method: as §1

Q: Which “POC (Percent of control) CAMK4” value does the source give for `COc1ccc(Nc2ncccc2-c2ncnc3[nH]cnc23)cn1` [Example 20, N-(6-Methoxypyridin-3-yl)-3-(9H-Purin-6-yl)Pyridin-2-Amine] here?
A: 100 POC

Molecular target: ProfilerPro Kinase Selectivity Assay Kit kinases (Homo sapiens, UniProt Q8IW41)
Format: biochemical
Details: PRAK; 1 μM compound concentration
Method: as §1

Q: With `COc1ccc(Nc2ncccc2-c2ncnc3[nH]cnc23)cn1` [Example 20, N-(6-Methoxypyridin-3-yl)-3-(9H-Purin-6-yl)Pyridin-2-Amine] as the compound, how does the “POC (Percent of control) PRAK” value read?
A: 99 POC

Molecular target: ProfilerPro Kinase Selectivity Assay Kit kinases (Homo sapiens, UniProt Q9BZL6)
Format: biochemical
Details: PKD2; 1 μM compound concentration
Method: as §1

Q: How did the “POC (Percent of control) PKD2” value turn out when `COc1ccc(Nc2ncccc2-c2ncnc3[nH]cnc23)cn1` [Example 20, N-(6-Methoxypyridin-3-yl)-3-(9H-Purin-6-yl)Pyridin-2-Amine] was run?
A: 100 POC

Molecular target: ProfilerPro Kinase Selectivity Assay Kit kinases (Homo sapiens, UniProt Q9P0L2)
Format: biochemical
Details: MARK1; 1 μM compound concentration
Method: as §1

Q: With `COc1ccc(Nc2ncccc2-c2ncnc3[nH]cnc23)cn1` [Example 20, N-(6-Methoxypyridin-3-yl)-3-(9H-Purin-6-yl)Pyridin-2-Amine] as the compound, how does the “POC (Percent of control) MARK1” value read?
A: 108 POC

Molecular target: ProfilerPro Kinase Selectivity Assay Kit kinases (Homo sapiens, UniProt Q9P1W9)
Format: biochemical
Details: PIM2; 1 μM compound concentration
Method: as §1

Q: With `COc1ccc(Nc2ncccc2-c2ncnc3[nH]cnc23)cn1` [Example 20, N-(6-Methoxypyridin-3-yl)-3-(9H-Purin-6-yl)Pyridin-2-Amine] as the compound, how does the “POC (Percent of control) PIM2” value read?
A: 105 POC

System: ProfilerPro Kinase Selectivity Assay Kit kinases
Format: biochemical
Details: AMPK; 1 μM compound concentration
Method: as §1

Q: For `COc1ccc(Nc2ncccc2-c2ncnc3[nH]cnc23)cn1` [Example 20, N-(6-Methoxypyridin-3-yl)-3-(9H-Purin-6-yl)Pyridin-2-Amine], which “POC (Percent of control) AMPK” value is on record?
A: 93 POC

Same assay, conditions: CAMK2; 1 μM compound concentration

Q: For `COc1ccc(Nc2ncccc2-c2ncnc3[nH]cnc23)cn1` [Example 20, N-(6-Methoxypyridin-3-yl)-3-(9H-Purin-6-yl)Pyridin-2-Amine], which “POC (Percent of control) CAMK2” value is on record?
A: 111 POC

Same assay, conditions: PKC beta2; 1 μM compound concentration

Q: Which “POC (Percent of control) PKC beta2” value does the source give for `COc1ccc(Nc2ncccc2-c2ncnc3[nH]cnc23)cn1` [Example 20, N-(6-Methoxypyridin-3-yl)-3-(9H-Purin-6-yl)Pyridin-2-Amine] here?
A: 104 POC

Same assay, conditions: TAK1; 1 μM compound concentration

Q: Which “POC (Percent of control) TAK1” value does the source give for `COc1ccc(Nc2ncccc2-c2ncnc3[nH]cnc23)cn1` [Example 20, N-(6-Methoxypyridin-3-yl)-3-(9H-Purin-6-yl)Pyridin-2-Amine] here?
A: 99 POC
